Results from patent US11434242B2, “Dopamine-b-hydroxylase inhibitors” (BIAL-PORTELA & Cª, S.A., priority 2017, dated 2022).
Structures can show the parent of a compound that is named as a salt.

Columns and labels:
[1] = test system: noradrenaline (NA) in brain stem; assay: Catecholamine determination: noradrenaline in brain stem after oral administration; assay type: in vivo, Wistar rats; conditions: 10 mg/kg oral; for NA in Br.s (% Control): rat brain stem noradrenaline, 15 h post-dose, mean±SD of 4 rats; for effect on levels of NA in CNS tissues such as brain stem: rat
Protocol: Catecholamines quantification in brain stem was performed as previously described (Bonifacio, M. J.; Sousa, F.; Neves, M.; Palma, N.; Igreja, B.; Pires, N. M.; Wright, L. C.; Soares-da-Silva, P. “Characterization of the interaction of the novel anthyhypertensive etamicastat with human dopamine-beta-hydroxylase: comparison with nepicastat.” Eur. J. Pharmacol. 751, 50-58, 2015) with minor modifications. Test compounds were prepared in 40% of kleptose at a concentration of 2.5 mg/ml to be administered at a dose of 10 mg/kg. Compounds and vehicle (kleptose 40%) were administered to Wistar rats and tissues (brain stem or heart left ventricle) collected in perchloric acid (0.2M) at defined time points after administration. Tissues were stored overnight at 4° C. and the solution was then filtered by centrifugation (1500 g, 4 min, 4° C.) through 0.22 μm pore size filters (Costar Spin-x from Corning Inc., USA). Catecholamines were quantified in filtrates by directly injecting 50 μl of sample volume on a HPLC system with electrochemical detection, using a Spheri-5RP-185 mm column (Perkin-Elmer). Mobile phase consisted of a solution containing 0.1M citric acid, 0.1M sodium acetate, 0.15 mM EDTA, 1 mM dibutylamine, 1 mM octylsulfate, and 5% methanol adjusted to pH 3.5 with perchloric acid.

[2] = biological target: T1, Dopamine beta hydroxylase (Homo sapiens, UniProt P09172); assay: Dopamine beta hydroxylase activity in human plasma; assay type: biochemical; conditions: for Plasma (0.01 μM), activity in % of control: inhibitor 0.01 μM; for Plasma (0.1 μM), activity in % of control: inhibitor 0.1 μM
T1 construct: 125 μl of plasma; tissue Instituto Português do Sangue Transplantação; host or cells: human plasma from healthy donors
T1 sequence (P09172 40-617 limits assumed): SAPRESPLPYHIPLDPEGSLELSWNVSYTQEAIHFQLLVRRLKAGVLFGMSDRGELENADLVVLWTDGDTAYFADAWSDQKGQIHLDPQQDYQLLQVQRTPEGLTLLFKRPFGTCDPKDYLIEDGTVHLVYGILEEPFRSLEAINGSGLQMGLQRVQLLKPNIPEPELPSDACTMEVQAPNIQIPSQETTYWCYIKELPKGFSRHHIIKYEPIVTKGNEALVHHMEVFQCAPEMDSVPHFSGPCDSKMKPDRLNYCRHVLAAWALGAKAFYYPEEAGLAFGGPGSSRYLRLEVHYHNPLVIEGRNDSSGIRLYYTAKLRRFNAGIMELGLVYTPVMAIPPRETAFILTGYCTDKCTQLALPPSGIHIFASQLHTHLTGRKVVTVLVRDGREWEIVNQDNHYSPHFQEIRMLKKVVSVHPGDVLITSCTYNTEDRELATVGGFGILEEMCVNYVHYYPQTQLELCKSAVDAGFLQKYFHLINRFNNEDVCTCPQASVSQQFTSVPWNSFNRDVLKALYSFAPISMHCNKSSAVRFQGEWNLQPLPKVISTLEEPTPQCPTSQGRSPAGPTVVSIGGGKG
Summary of the method: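 Healthy-donor human plasma pre-incubated 10 min at 37° C with compound at final 10, 100 or 1000 nM in pH 5.0 acetate buffer with ascorbate, fumarate, pargyline, N-ethylmaleimide, catalase and copper sulfate. Tyramine substrate then added for 45 min; octopamine formed was isolated by SCX cartridge, periodate-converted and read at 330 nm; activity given as % control.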

SMILES	NA in Br.s (% Control) [1]	effect on levels of NA in CNS tissues such as brain stem [1]	Plasma (0.01 μM), activity in % of control [2]	Plasma (0.1 μM), activity in % of control [2]	Plasma (1 μM), activity in % of control ([2]; inhibitor 1 μM)
Cn1c(CC(=O)O)c2n(c1=S)C[C@@]1(c3c(F)ccc(Cl)c3F)C[C@@H]21 [Example 231, 2-((5aS,6aR)-5a-(3-chloro-2,6-difluorophenyl)-2-methyl-3-thioxo-2,3,5,5a,6,6a-hexahydrocyclopropa[3,4]pyrrolo[1,2-c]imidazol-1-yl)acetic Acid]	99 ± 14 % Control	failed to reduce levels of NA	35.9 % of control	5.6 % of control	–
Fc1ccc(Br)c(F)c1[C@@H]1Cc2c(CCN3CCOCC3)[nH]c(=S)n2C1 [Example 195, (S)-6-(3-bromo-2,6-difluorophenyl)-1-(2-morpholinoethyl)-2,5,6,7-tetrahydro-3H-pyrrolo[1,2-c]imidazole-3-thione]	123 ± 55 % Control	failed to reduce levels of NA	77.3 % of control	41.7 % of control	–
Cl.Cn1c(CCN[C@@H]2CCOC2)c2n(c1=S)C[C@H](c1c(F)ccc(Br)c1F)C2 [Example 256, (S)-6-(3-bromo-2,6-difluorophenyl)-2-methyl-1-(2-(((R)-tetrahydrofuran-3-yl)amino)ethyl)-2,5,6,7-tetrahydro-3H-pyrrolo[1,2-c]imidazole-3-thione hydrochloride]	128 ± 64 % Control	failed to reduce levels of NA	61.7 % of control	29.2 % of control	–
Fc1cc(F)c(F)c([C@H]2Cc3c(CCCN4CCCC4)[nH]c(=S)n3C2)c1F [Example 219, (R)-1-(3-(pyrrolidin-1-yl)propyl)-6-(2,3,5,6-tetrafluorophenyl)-2,5,6,7-tetrahydro-3H-pyrrolo[1,2-c]imidazole-3-thione hydrochloride]	92 ± 23 % Control	failed to reduce levels of NA	69.9 % of control	19.7 % of control	–
Cl.Fc1ccc(Cl)cc1[C@]12C[C@H]1c1c(CCN3CCOCC3)[nH]c(=S)n1C2 [Example 174, (5aS,6aR)-5a-(5-chloro-2-fluorophenyl)-1-(2-morpholinoethyl)-5,5a,6,6a-tetrahydrocyclopropa[3,4]pyrrolo[1,2-c]imidazole-3(2H)-thione hydrochloride]	84 ± 8 % Control	failed to reduce levels of NA	–	52.7 % of control	8.5 % of control
CN(C(=O)Cc1c2n(c(=S)n1C)C[C@@]1(c3c(F)ccc(Cl)c3F)C[C@@H]21)C1COC1 [Example 403, 2-((5aS,6aR)-5a-(3-chloro-2,6-difluorophenyl)-2-methyl-3-thioxo-2,3,5,5a,6,6a-hexahydrocyclopropa[3,4]pyrrolo[1,2-c]imidazol-1-yl)-N-methyl-N-(oxetan-3-yl)acetamide]	87 ± 16 % Control	failed to reduce levels of NA	29.9 % of control	4.8 % of control	–
F.Fc1ccc(Br)cc1[C@]12C[C@H]1c1c(CCN3CCOCC3)[nH]c(=S)n1C2 [Example 191, (5aS,6aR)-5a-(5-bromo-2-fluorophenyl)-1-(2-morpholinoethyl)-5,5a,6,6a-tetrahydrocyclopropa[3,4]pyrrolo[1,2-c]imidazole-3(2H)-thione hydrofluoride]	83 ± 10 % Control	failed to reduce levels of NA	82.3 % of control	26.0 % of control	–
